Experimental data: patent US12539292B2, “BRM targeting compounds and associated methods of use” (Arvinas Operations, Inc., priority 2018, dated 2026)
Read-outs that look alike come from different tables or passages of the source.

Molecular target: T1, BRM (Homo sapiens, UniProt P51531)
T1 construct: In-Cell Western Screen of BRM Degradation in SW1573 Cells; endogenous in cells; host or cells: SW1573
Assay: In-cell Western screen of BRM degradation in SW1573 cells (Dmax and DC50)
Format: cell-based
In short: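 Adherent SW1573 cultures exposed to test compounds for 18-20 h were processed for in-cell Western after PFA fixation and detergent permeabilization. BRM degradation was reported as Dmax and DC50.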

[1] = BRM degradation, SW1573 cells, read-out: DC50
[2] = degradation of BRM, read-out: BRM DC50
[3] = target protein degradation, read-out: BRM DC50
[4] = BRM degradation, SW1573 cells, when tested at the top concentration of between 0.3 and 10 μM, read-out: Dmax (%) (% degraded)

T1 sequence (P51531 whole entry): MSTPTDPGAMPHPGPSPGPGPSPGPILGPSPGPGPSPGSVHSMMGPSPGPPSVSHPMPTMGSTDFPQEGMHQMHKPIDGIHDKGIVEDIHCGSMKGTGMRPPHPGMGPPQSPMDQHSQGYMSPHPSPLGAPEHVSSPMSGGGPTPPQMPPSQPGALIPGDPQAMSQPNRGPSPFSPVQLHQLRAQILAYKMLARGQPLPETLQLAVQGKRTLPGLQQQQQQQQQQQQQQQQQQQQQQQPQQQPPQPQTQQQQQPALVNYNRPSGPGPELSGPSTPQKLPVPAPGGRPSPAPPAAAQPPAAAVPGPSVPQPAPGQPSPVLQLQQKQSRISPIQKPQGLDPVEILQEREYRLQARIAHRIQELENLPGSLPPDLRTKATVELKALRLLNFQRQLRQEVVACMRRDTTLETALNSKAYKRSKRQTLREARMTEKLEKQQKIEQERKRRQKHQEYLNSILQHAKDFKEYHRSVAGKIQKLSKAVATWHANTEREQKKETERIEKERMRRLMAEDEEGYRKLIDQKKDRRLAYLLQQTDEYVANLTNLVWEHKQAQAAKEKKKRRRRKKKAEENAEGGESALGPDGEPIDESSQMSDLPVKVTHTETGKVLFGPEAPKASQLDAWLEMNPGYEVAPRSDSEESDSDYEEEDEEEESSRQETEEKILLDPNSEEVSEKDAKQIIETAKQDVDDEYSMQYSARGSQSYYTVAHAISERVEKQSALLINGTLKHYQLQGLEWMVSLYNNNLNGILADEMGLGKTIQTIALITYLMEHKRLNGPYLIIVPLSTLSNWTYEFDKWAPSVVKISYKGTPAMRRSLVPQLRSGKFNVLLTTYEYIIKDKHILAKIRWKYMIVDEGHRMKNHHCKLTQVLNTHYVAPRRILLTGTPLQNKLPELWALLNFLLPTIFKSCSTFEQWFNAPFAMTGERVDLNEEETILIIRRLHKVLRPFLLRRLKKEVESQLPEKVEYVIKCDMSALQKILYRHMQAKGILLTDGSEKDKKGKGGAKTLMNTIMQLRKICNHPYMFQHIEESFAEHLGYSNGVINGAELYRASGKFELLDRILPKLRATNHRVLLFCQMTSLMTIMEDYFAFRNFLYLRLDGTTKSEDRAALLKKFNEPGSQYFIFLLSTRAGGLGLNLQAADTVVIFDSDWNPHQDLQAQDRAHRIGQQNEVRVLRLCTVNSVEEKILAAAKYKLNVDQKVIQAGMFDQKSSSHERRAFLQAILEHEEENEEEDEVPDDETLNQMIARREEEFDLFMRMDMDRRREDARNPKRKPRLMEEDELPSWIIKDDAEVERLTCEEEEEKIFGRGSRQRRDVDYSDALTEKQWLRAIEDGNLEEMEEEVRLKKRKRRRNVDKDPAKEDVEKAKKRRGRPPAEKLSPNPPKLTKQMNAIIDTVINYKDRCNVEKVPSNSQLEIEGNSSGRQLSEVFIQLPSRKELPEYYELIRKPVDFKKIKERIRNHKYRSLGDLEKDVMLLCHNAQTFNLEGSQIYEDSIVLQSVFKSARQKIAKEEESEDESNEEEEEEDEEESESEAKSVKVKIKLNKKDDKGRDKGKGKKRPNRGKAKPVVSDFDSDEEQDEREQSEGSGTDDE

## Cc1ncsc1-c1cc(F)c([C@H](C)NC(=O)[C@@H]2C[C@@H](O)CN2C(=O)[C@H](c2cc(N3CCC(CN4CCC(O[C@H]5C[C@H](Oc6cc(N7C8CCC7CN(c7cc(-c9ccccc9O)nnc7N)C8)ccn6)C5)CC4)CC3)no2)C(C)C)cc1F [compound 680, (2S,4R)-1-((2S)-2-(3-(4-((4-((1r,3r)-3-((4-(3-(3-amino-6-(2-hydroxyphenyl)pyridazin-4-yl)-3,8-diazabicyclo[3.2.1]octan-8-yl)pyridin-2-yl)oxy)cyclobutoxy)piperidin-1-yl)methyl)piperidin-1-yl)isoxazol-5-yl)-3-methylbutanoyl)-N-((S)-1-(2,5-difluoro-4-(4-methylthiazol-5-yl)phenyl)ethyl)-4-hydroxypyrrolidine-2-carboxamide]
[1]
  DC50: > 30 nM

## Cc1ncsc1-c1ccc([C@H](C)NC(=O)[C@@H]2C[C@@H](O)CN2C(=O)[C@@H](c2cc(OCCN3CCC(C(=O)N4CC(Oc5cc(N6C7CCC6CN(c6cc(-c8ccccc8O)nnc6N)C7)ccn5)C4)CC3)no2)C(C)C)cc1 [compound 405, (2S,4R)-1-((2R)-2-(3-(2-(4-(3-((4-(3-(3-amino-6-(2-hydroxyphenyl)pyridazin-4-yl)-3,8-diazabicyclo[3.2.1]octan-8-yl)pyridin-2-yl)oxy)azetidine-1-carbonyl)piperidin-1-yl)ethoxy)isoxazol-5-yl)-3-methylbutanoyl)-4-hydroxy-N-((S)-1-(4-(4-methylthiazol-5-yl)phenyl)ethyl)pyrrolidine-2-carboxamide]
SW1573, % degraded, when tested at the top concentration of between 0.3 and 10 μM, read-out: BRM Dmax (%)
  Dmax: > 75%
[2]
  DC50: < 2.5 nM

## Cc1ncsc1-c1ccc([C@H](C)NC(=O)[C@@H]2C[C@@H](O)CN2C(=O)[C@H](c2cc(OCCC3(O)CCN(C[C@H]4C[C@H](Oc5cc(N6C7CC[C@@H]6CN(c6cc(-c8ccccc8O)nnc6N)C7)ccn5)C4)CC3)no2)C(C)C)cc1 [compound 435, (2S,4R)-1-((2S)-2-(3-(2-(1-(((1r,3S)-3-((4-(3-(3-amino-6-(2-hydroxyphenyl)pyridazin-4-yl)-3,8-diazabicyclo[3.2.1]octan-8-yl)pyridin-2-yl)oxy)cyclobutyl)methyl)-4-hydroxypiperidin-4-yl)ethoxy)isoxazol-5-yl)-3-methylbutanoyl)-4-hydroxy-N-((S)-1-(4-(4-methylthiazol-5-yl)phenyl)ethyl)pyrrolidine-2-carboxamide]
% degraded, when tested at the top concentration of between 0.3 and 10 μM
  BRM Dmax (%): A (A > 75)
[2]
  DC50: < 2.5 nM

## Cc1ncsc1-c1ccc([C@H](C)NC(=O)[C@@H]2C[C@@H](O)CN2C(=O)[C@H](c2cc(OC/C=C/c3ncc(O[C@H]4C[C@H](Oc5cc(N6C7CCC6CN(c6cc(-c8ccccc8O)nnc6N)C7)ccn5)C4)cn3)no2)C(C)C)cc1 [compound 391, (2S,4R)-1-((2S)-2-(3-(((E)-3-(5-((1r,3S)-3-((4-(3-(3-amino-6-(2-hydroxyphenyl)pyridazin-4-yl)-3,8-diazabicyclo[3.2.1]octan-8-yl)pyridin-2-yl)oxy)cyclobutoxy)pyrimidin-2-yl)allyl)oxy)isoxazol-5-yl)-3-methylbutanoyl)-4-hydroxy-N-((S)-1-(4-(4-methylthiazol-5-yl)phenyl)ethyl)pyrrolidine-2-carboxamide]
[3]
  DC50: > 30 nM

## Cc1ncsc1-c1ccc(CNC(=O)[C@H]2C[C@H](O)CN2C(=O)C(c2cc(OCCN3CCN(CCOc4cc(N5C6CCC5CN(c5cc(-c7ccccc7O)nnc5N)C6)ccn4)CC3)no2)C(C)C)cc1 (stereo partly drawn) [compound 57, (2R,4S)-1-(2-(3-(2-(4-(2-((4-(3-(3-amino-6-(2-hydroxyphenyl)pyridazin-4-yl)-3,8-diazabicyclo[3.2.1]octan-8-yl)pyridin-2-yl)oxy)ethyl)piperazin-1-yl)ethoxy)isoxazol-5-yl)-3-methylbutanoyl)-4-hydroxy-N-(4-(4-methylthiazol-5-yl)benzyl)pyrrolidine-2-carboxamide]
[4]
  Dmax: < 50%

## Cc1ncsc1-c1ccc([C@H](C)NC(=O)[C@@H]2C[C@@H](O)CN2C(=O)[C@H](c2cc(OCCC#Cc3ccc(OC4CC(Oc5cc(N6C7CC[C@@H]6CN(c6cc(-c8ccccc8O)nnc6N)C7)ccn5)C4)cn3)no2)C(C)C)cc1 (stereo partly drawn) [compound 226, (2S,4R)-1-((2S)-2-(3-((4-(5-((1r,3r)-3-((4-(3-(3-amino-6-(2-hydroxyphenyl)pyridazin-4-yl)-3,8-diazabicyclo[3.2.1]octan-8-yl)pyridin-2-yl)oxy)cyclobutoxy)pyridin-2-yl)but-3-yn-1-yl)oxy)isoxazol-5-yl)-3-methylbutanoyl)-4-hydroxy-N-((S)-1-(4-(4-methylthiazol-5-yl)phenyl)ethyl)pyrrolidine-2-carboxamide]
[1]
  DC50: 10 to 30 nM
BRM degradation, SW1573 cells, tested at the top concentration of between 0.3 and 10 μM
  Dmax (%) (% degraded): A (A > 75)

## Cc1ncsc1-c1ccc([C@H](C)NC(=O)[C@@H]2C[C@@H](O)CN2C(=O)[C@@H](c2cc(OCCC3CCN(C[C@H]4C[C@H](N5CCC(C(C)n6cc(-c7cc(-c8ccccc8O)nnc7N)cn6)CC5)C4)CC3)no2)C(C)C)cc1 (stereo partly drawn) [compound 599, (2S,4R)-1-((2R)-2-(3-(2-(1-(((1r,3R)-3-(4-(1-(4-(3-amino-6-(2-hydroxyphenyl)pyridazin-4-yl)-1H-pyrazol-1-yl)ethyl)piperidin-1-yl)cyclobutyl)methyl)piperidin-4-yl)ethoxy)isoxazol-5-yl)-3-methylbutanoyl)-4-hydroxy-N-((S)-1-(4-(4-methylthiazol-5-yl)phenyl)ethyl)pyrrolidine-2-carboxamide]
BRM degradation, SW1573 cells, Table 2D, read-out: **Dmax (%) (% degraded)
  Dmax: > 75%
BRM degradation, SW1573 cells, Table 2D, read-out: *DC50
  DC50: < 2.5 nM

## Cc1ncsc1-c1ccc([C@H](C)NC(=O)[C@@H]2C[C@@H](O)CN2C(=O)[C@@H](c2cc(OCCN3CCC(O[C@H]4C[C@H](Oc5cc(N6C7CCC6CN(c6cc(N)nc8nc(-c9ccccc9O)cn68)C7)ccn5)C4)CC3)no2)C(C)C)cc1 [compound 516]
BRM degradation, read-out: BRM DC50
  DC50: > 30 nM

## Cc1ncsc1-c1ccc([C@H](C)NC(=O)[C@@H]2C[C@@H](O)CN2C(=O)[C@H](c2cc(OCCN3CCC(O[C@H]4C[C@H](Oc5cnnc(N6C7CCC6CN(c6cc(-c8ccccc8O)nnc6N)C7)c5)C4)CC3)no2)C(C)C)cc1 [compound 470, (2S,4R)-1-((2S)-2-(3-(2-(4-((1r,3S)-3-((6-(3-(3-amino-6-(2-hydroxyphenyl)pyridazin-4-yl)-3,8-diazabicyclo[3.2.1]octan-8-yl)pyridazin-4-yl)oxy)cyclobutoxy)piperidin-1-yl)ethoxy)isoxazol-5-yl)-3-methylbutanoyl)-4-hydroxy-N-((S)-1-(4-(4-methylthiazol-5-yl)phenyl)ethyl)pyrrolidine-2-carboxamide]
[3]
  DC50: > 30 nM

## Cc1ncsc1-c1ccc(CNC(=O)[C@@H]2C[C@@H](O)CN2C(=O)[C@H](C(C)C)N2Cc3ccccc3C2=O)c(OCCOCCOCCOCCn2cc(-c3cc(-c4ccccc4O)nnc3N)cn2)c1 [compound 12, (2S,4R)-N-(2-(2-(2-(2-(2-(4-(3-amino-6-(2-hydroxyphenyl)pyridazin-4-yl)-1H-pyrazol-1-yl)ethoxy)ethoxy)ethoxy)ethoxy)-4-(4-methylthiazol-5-yl)benzyl)-4-hydroxy-1-((S)-3-methyl-2-(1-oxoisoindolin-2-yl)butanoyl)pyrrolidine-2-carboxamide]
[1]
  DC50: > 30 nM
[4]
  Dmax: 50 to 75%
